In patent US10471041B2, “Use of geninstein” (DSM IP ASSETS B.V., priority 2007, dated 2019):

System: rats treated with scopolamine
Assay: Zone Quick test (phenol red thread) of tear production in the scopolamine dry eye model
Type: in vivo, rat
Details: FIG. 1
Experimental: Another well-accepted model of dry eye is the scopolamine model which utilizes subcutaneous injections (5 mg in 10 ml) or dermal patch or gel dosage (Durson et al., Invest. Ophthalmol. Vis. Sci. 43: 632-8, 2002) of scopolamine to induce a dry eye condition in rats by parasympatholytic blockade of natural tear production.
These models and their variations were used to test the efficacy of genistein, delivered as a feed admixture (50 mg/kg low dose and 250 mg/kg high dose) to ameliorate the effects of dry eye. In addition, one test group served as a control group, receiving vehicle feed only with no added isoflavonoids.
Tear volume was assessed by using absorptive threads impregnated with Phenol Red (zone quick test). Outcome measures are according to criteria published in test instructions as well as comparison with control animal results.
Tear volume was monitored by the Zone Quick test. This in-life test is a standardized measure of tear production. It consists of a thread impregnated with phenol red which causes a colour change of the length of the thread that becomes wet from tears when the thread is applied to the lacrimal lake. The length (in mm) of the wetted thread is proportional to the tear volume produced.
0-CON, 0-SCOP: each 8 control animals (not on scopolamine or on scopolamine)
50-SCOP: 8 animals (on scopolamine) suppl. with 50 ppm genistein […]

## O=c1c(-c2ccc(O)cc2)coc2cc(O)cc(O)c12 [genistein, 4′,5,7-trihydroxy-isoflavone]
250 vs 50 genistein supplementation groups
  dose dependence of tear volume restoration: more pronounced in the group supplemented with 250 mg than in that with 50 mg
Genistein as feed admixture, 50 or 250 ppm, supplementation 2.5 weeks (MIDTEST) and 5.0 weeks (FINALTEST), compared with control animals
  tear volume (Zone Quick test, length of wetted thread): restored their tear volume almost to control values
